What is called IC50 is the point on the concentration scale where inhibition reaches its midpoint.

Data set [1] can be described thus: Liver microsomal clearance, rat. The note with it: pH 7.4; Rat liver microsomes; 1 mg/mL; 20 minutes. Type of data set: in vitro ADME. The method, then: The predicted hepatic clearance (CLh) value was calculated by scaling the in vitro half-life (t1/2) for stability of the compound in liver microsomes (1 mg/mL; 20 minutes) using the physical and physiological scaling factors used to predict intrinsic clearance (CLint) and hepatic clearance (CLhep) listed in Table 2 and employed in the following equations: […]
where D is the amount of cytochrome P450-related protein per mass of liver, W is the average mass of liver present per weight of animal, C is the liver microsomal concentration, and Q is the species-dependent hepatic blood flow.
A 100 mM potassium phosphate assay buffer solution (KPB) was prepared as follows. Both KH2PO4 and K2HPO4 were dissolved separately in reagent grade water resulting in final concentrations 100 mM. A 75:25 mixture v/v of K2HPO4:KH2PO4 was prepared and the pH of the solution was adjusted to 7.4 using diluted HCl or diluted NaOH solutions. Stock solutions of Compound 1, Compound 2 and Compound 3 were prepared at 10 mM (active compound) in DMSO. The stock solution was diluted immediately before use to 2.5 μM using the KPB solution to create the working standard. All test compounds were completely soluble in DMSO by visual inspection at room temperature. The NADPH-regenerating solution (NRS) was prepared on the day of analysis by diluting one volume of 17 mg/mL NADP^+ with one volume of 78 mg/mL glucose-6-phosphate (both prepared in KPB, pH 7.4) and 7.9 volumes of 20 mM MgCl2. The final concentrations of NADP^+ and glucose-6-phosphate were 1.7 mg/mL and 7.8 mg/mL, respectively. […]
All calculations were performed using BioAssay Enterprise. The mean peak area ratios were calculated by averaging the peak area ratios (n=2) of Compound 1, Compound 2, Compound 3, and the internal standard for each sample. Percent remaining was calculated by determining the ratio of the peak area ratio at each time point to the peak area ratio of the time-zero samples. The rate of loss of test compound (km) was determined by linear regression of −ln(f(t)) versus time. […] The t1/2 was determined dividing ln(2) by km. […]

Data set [2] in a line: Predicted human IV clearance (microsomal CLh/correction factor). The note with it: for in vivo/in vitro correction factor: pre-clinical mean correction factor for all species tested; for IV clearance (predicted): predicted from human microsomal CLh and mean pre-clinical correction factor. Here is the method:
In Table 1, the predicted human IV clearance values were calculated from compound concentration-versus-time data in plasma collected from pre-clinical species (mouse, rat, dog and monkey) following 1 mg/kg intravenous (IV) doses. Concentrations of compound in plasma were measured by LC-MS (liquid chromatography-mass spectrometry). AUCinf values (Area under the plasma concentration-time curve for a dosing interval from time 0 extrapolated to infinity) for individual Cp/t curves (concentration of the drug in plasma at any time t) were determined using linear-trapezoidal integration and first order extrapolation from terminal points of the Cp/t curves, and clearance (CL) was calculated using Dose/AUCinf.
The in vivo/in vitro correction factor was then determined by dividing the […]. The arithmetic mean of the pre-clinical correction factors for each compound was used to predict the human IV clearance from the measured human microsomal CLh (CLh/correction factor).

Data set [3] deals with T1, His-tagged recombinant human TrkA (Homo sapiens, UniProt P04629).
T1 construct: 6HIS tagged cytoplasmic domain from Invitrogen, Catalog No. PV3144; purchased Invitrogen PV3144
Briefly: TrkA LanthaScreen Eu Kinase Binding Assay (Example A). The settings on record: assay of Example A; 60-minute incubation at 22° C.; read-out: averaged IC50 value, TrkA binding. The method, then: TrkA binding activity was determined in a TrkA LanthaScreen™ Eu Kinase Binding Assay. 5 nM His-tagged recombinant human TrkA (6HIS tagged cytoplasmic domain from Invitrogen, Catalog No. PV3144) was incubated with 4 nM Alexa-Fluor® Tracer 236 (Invitrogen Catalog No. PV5592), 2 nM biotinylated anti-His (Invitrogen Cat. No. PV6090), and 2 nM europium-labeled Streptavidin (Invitrogen Cat. No. PV5899), in buffer (25 mM MOPS, pH 7.5, 5 mM MgCl2, 0.005% Triton X-100). Three fold serial dilutions of Compound 1, compound 2 or compound 3 in DMSO were added to a final percentage of 2% DMSO. After 60-minute incubation at 22° C., the reaction was measured using the EnVision mutlimode plate reader (PerkinElmer) via TR-FRET dual wavelength detection at […]. The percent of control was calculated using a ratiometric emission factor. The IC50 value was determined by fitting a four parameter model to the percent of control data.
For orientation: In TR-FRET formats the signal depends on donor and acceptor labels being close together.

Each structure is given as a SMILES string. Marks after values point to notes of the source that are not given here.

T1 sequence (P04629 440-796 limits assumed): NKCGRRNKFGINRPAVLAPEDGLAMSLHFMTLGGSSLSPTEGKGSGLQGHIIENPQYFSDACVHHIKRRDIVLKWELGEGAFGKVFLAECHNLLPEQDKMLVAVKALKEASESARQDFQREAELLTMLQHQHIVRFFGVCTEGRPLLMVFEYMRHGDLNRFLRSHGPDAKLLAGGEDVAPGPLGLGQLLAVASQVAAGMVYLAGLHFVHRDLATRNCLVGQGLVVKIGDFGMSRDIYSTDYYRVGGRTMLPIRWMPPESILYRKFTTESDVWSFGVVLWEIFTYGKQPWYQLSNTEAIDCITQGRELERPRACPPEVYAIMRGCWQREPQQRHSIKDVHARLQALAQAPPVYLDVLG

As to `COCCN1C[C@@H](NC(=O)Nc2c(C)c(-c3cnc(C)nc3)nn2-c2ccccc2)[C@H](c2ccc(F)c(F)c2)C1` [Compound 2, 1-((3S,4R)-4-(3,4-difluorophenyl)-1-(2-methoxyethyl)pyrrolidin-3-yl)-3-(4-methyl-3-(2-methylpyrimidin-5-yl)-1-phenyl-1H-pyrazol-5-yl)urea], the CLhep predicted at 1 μM in data set [1] was 22 mL/min/kg. In data set [2], the “in vivo/in vitro correction factor” value is 1.32 *** and the “IV clearance (predicted)” value was 12 (predicted)** mL/min/kg. Moreover, the IC50 in data set [3] was found to be 1.5 nM.
In the same order, the values of `COCCN1C[C@@H](NC(=O)Nc2c(C)c(-c3cnn(C)c3)nn2-c2ccccc2)[C@H](c2ccc(F)cc2)C1` [Compound 3, 1-(1′,4-dimethyl-1-phenyl-1H,1′H-[3,4′-bipyrazol]-5-yl)-3-((3S,4R)-4-(4-fluorophenyl)-1-(2-methoxyethyl)pyrrolidin-3-yl)urea] are 23 mL/min/kg, 0.96 ***, 10 (predicted)** mL/min/kg and 1.7 nM.
In the same order, the values of `COCCN1C[C@@H](NC(=O)Nc2c(C)c(-c3cnc(C)nc3)nn2-c2ccccc2)[C@H](c2cccc(F)c2)C1` [Compound 1, 1-((3S,4R)-4-(3-fluorophenyl)-1-(2-methoxyethyl)pyrrolidin-3-yl)-3-(4-methyl-3-(2-methylpyrimidin-5-yl)-1-phenyl-1H-pyrazol-5-yl)urea] are 22 mL/min/kg, 2.09 ***, 5 (predicted)** mL/min/kg and 1.1 nM.
